Reference: US10696611B2, “Adamantane derivative compound” (AMOREPACIFIC CORPORATION, priority 2014, dated 2020)
Read-outs that look alike come from different tables or passages of the source.

Experiments:
androgen receptor (AR) = target: T1, androgen receptor (AR) (Homo sapiens, UniProt P10275, T878A); assay: competitive steroid binding assay ([3H] methyltrienolone displacement)
T1 construct: wild type androgen receptor (AR) is obtained by isolating cytoplasm fraction from LNCaP cell line; host or cells: LNCaP cytoplasm fraction
T1 sequence (P10275 1-920 T878A): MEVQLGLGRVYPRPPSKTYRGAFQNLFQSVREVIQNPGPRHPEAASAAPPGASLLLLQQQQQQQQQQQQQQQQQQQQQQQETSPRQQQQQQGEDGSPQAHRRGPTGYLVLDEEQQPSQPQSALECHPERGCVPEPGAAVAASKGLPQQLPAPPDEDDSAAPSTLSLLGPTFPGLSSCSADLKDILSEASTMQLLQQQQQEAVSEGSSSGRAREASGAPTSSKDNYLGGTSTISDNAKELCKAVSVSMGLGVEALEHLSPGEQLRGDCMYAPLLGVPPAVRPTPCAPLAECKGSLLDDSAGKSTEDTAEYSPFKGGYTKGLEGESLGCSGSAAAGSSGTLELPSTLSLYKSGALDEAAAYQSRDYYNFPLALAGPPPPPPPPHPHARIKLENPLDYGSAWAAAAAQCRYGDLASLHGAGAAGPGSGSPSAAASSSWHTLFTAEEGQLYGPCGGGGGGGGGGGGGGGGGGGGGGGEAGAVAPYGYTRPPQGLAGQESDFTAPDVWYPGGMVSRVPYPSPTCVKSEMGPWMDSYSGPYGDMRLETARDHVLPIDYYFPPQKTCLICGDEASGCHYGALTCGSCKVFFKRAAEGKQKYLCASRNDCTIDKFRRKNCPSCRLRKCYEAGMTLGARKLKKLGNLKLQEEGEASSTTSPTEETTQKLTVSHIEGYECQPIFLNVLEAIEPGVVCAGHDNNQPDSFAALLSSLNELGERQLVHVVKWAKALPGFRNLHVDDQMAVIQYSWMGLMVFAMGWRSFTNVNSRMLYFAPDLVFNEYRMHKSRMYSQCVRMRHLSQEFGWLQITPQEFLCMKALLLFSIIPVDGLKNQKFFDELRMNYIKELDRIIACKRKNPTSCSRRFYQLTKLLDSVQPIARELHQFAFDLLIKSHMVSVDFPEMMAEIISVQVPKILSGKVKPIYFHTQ
Procedure: This assay determines whether or not the adamantane derivative according to the present disclosure is bound to androgen receptor (AR) competitively with methyltrienolone, which is an agonist to androgen receptor.
Such competitive steroid binding assay is carried out by introducing tritium-labeled methyltrienolone as a ligand for androgen receptor, introducing test samples non-labeled with radio isotope thereto at a different concentration, and checking whether or not the test samples are bound to androgen receptor competitively with the ligand, methyltrienolone. In this manner, the test samples are evaluated for their anti-androgenic effects. Herein, the level of the remaining isotope, tritium, is measured to determine whether or not the test samples are bound to androgen receptor competitively with the ligand, methyltrienolone.
Particularly, wild type androgen receptor (AR) is obtained by isolating cytoplasm fraction from LNCaP cell line (ATCC® CRL-1740™). […] The reaction is carried out at 4° C. for 24 hours and the reaction mixture is filtered and washed. Then, radio activity is measured in each ligand bound to the receptor.

mice = assay: effect of stimulating hair growth in dehaired mice; type: in vivo; conditions: 1.0 wt % in water/ethanol/1,3-butylene glycol, 150 μl/day applied on back for 21 days; newly grown hair
Procedure: To evaluate the adamantane derivatives according to the present disclosure for the effect of stimulating hair growth, each of the adamantane derivatives according to Examples 1-10 is dissolved into a solvent including water/ethanol/1,3-butylene glycol (5/3/2) to a concentration of 1.0 wt %. Next, mice 47-53 days after the birth are dehaired on their backs. Then, mice whose skins on the back portions are clear are selected and grouped by 8 mice per group. Each adamantane derivative having a concentration of 1.0 wt % is applied to each mouse every day in an amount of 150 μl/day for 21 days. After 21 days, newly grown hair is weighed and the weight is compared with negative control.

[1] = tested on: male and female subjects suffering from excessive secretion of sebum; assay: effect of inhibiting secretion of sebum (Sebumeter SM810); type: in vivo; conditions: nourishing cream including the compound applied every day
Procedure: The following test is carried out to evaluate the adamantane derivatives according to Examples 1-10 for the effect of inhibiting secretion of sebum. Twenty male and female subjects suffering from excessive secretion of sebum are selected and allowed to apply nourishing cream including each of Examples 1-10 and nourishing cream of negative control every day at a predetermined site for 4 weeks. Then, Sebumeter SM810 (C&K Electronic Co., Germany) is used to determine the average ratio (%) of decrease in sebum after 2 weeks and 4 weeks.

[2] = tested on: Rat-derived follicle dermal papilla cells; assay: growth of dermal papilla cells (MTT); type: cell-based; conditions: 10 μg/ml, 48 hours, MTT absorbance at 570 nm relative to DMSO control (100), read-out: Ratio (%) of growth of dermal papilla cells
Procedure: Rat-derived follicle dermal papilla cells cultured in Dulbecco's modified Eagle's media (DMEM) containing 2% of fetal bovine serum are dispensed to a 96-well microtiter plate to 1,000 cells/well. As positive control, minoxidil diluted to a concentration of 10 μg/ml is added. Each of the adamantane derivatives according to Examples 1-10 diluted to a concentration of 10 μg/ml is added, followed by culturing at 37° C. for 48 hours. After culturing, 0.2% 3-[4,5-dimethylthiazol-2-yl]-2,5-diphenyltetrazolium bromide (MTT) solution is added to each well in an amount of 50 μl, followed by culturing at 37° C. for 4 hours. Then, the produced formazane is dissolved with dimethyl sulfoxide (DMSO). A microplate reader is used to determine the absorbance of the dissolved formazane at 570 nm. The absorbance is compared with the absorbance of control treated with DMSO solution alone and the ratio (%) of growth of dermal papilla cells is evaluated based on the relative difference.

[3] = wild type AR from LNCaP cytoplasm fraction, [3H] methyltrienolone, 4° C. for 24 hours

Row | Structure (SMILES) | IC50 (androgen receptor (AR); [3]) [nM] | Hair weight (mice) [mg] | Ratio (%) of decrease in sebum After 2 weeks [1] [%] | Ratio (%) of decrease in sebum After 4 weeks [1] [%] | activity at 10 µg/mL [2] [%] | IC50 (androgen receptor (AR)) [nM]
1 | O=C(Nc1ccc([N+](=O)[O-])c(Cl)c1)C12CC3CC(CC(C3)C1)C2 [Example 3, Adamantan-1-carboxylic acid-(3-chloro-4-nitrophenyl)-amide] | 440 | 72 ± 6 | 18.1 | 27.6 | 118 | 
2 | Cc1cc(C(=O)NC23CC4CC(CC(C4)C2)C3)ccc1[N+](=O)[O-] [Example 7] | 1900 | 68 ± 8 | 18.1 | 29.8 | 123 | 
3 | COc1cc(NC(=O)C23CC4CC(CC(C4)C2)C3)ccc1Br [Example 19, Adamantan-1-carboxylic Acid (4-bromo-3-methoxyphenyl)amide] | 5300 |  |  |  |  | 
4 | N#Cc1ccc(NC(=O)C23CC4CC(CC(C4)C2)C3)cc1C(F)(F)F [Comp. Ex. 1, Adamantan-1-carboxylic acid-(4-cyano-3-trifluoro-phenyl)amide, reference compound] |  | 59 ± 12 | 16.5 | 26.2 | 114 | 11400
5 | O=C(Nc1cccc([N+](=O)[O-])c1)C12CC3CC(CC(C3)C1)C2 [Example 23, Adamantan-1-carboxylic Acid (3-nitrophenyl)amide] | 13500 |  |  |  |  | 
6 | COc1cc(NC(=O)C23CC4CC(CC(C4)C2)C3)ccc1C#N [Example 5, Adamantan-1-carboxylic acid-(4-cyano-3-methoxy-phenyl)-amide] | 2200 | 71 ± 14 | 18.7 | 32.8 | 145 | 
7 | Nc1cc(N2CCCCC2)nc(N)[n+]1[O-] [minoxidil, reference compound] |  |  |  |  | 120 | 
8 | N#Cc1ccc(NC(=O)C23CC4CC(CC(C4)C2)C3)c(Cl)c1 [Example 6, Adamantan-1-carboxylic acid-(4-cyano-2-chloro-phenyl)-amide] | 2400 | 67 ± 12 | 17.4 | 31.4 | 124 | 
9 | COc1cc(NC(=O)C23CC4CC(CC(C4)C2)C3)ccc1F [Example 17, Adamantan-1-carboxylic Acid (4-fluoro-3-methoxyphenyl)amide] | 14800 |  |  |  |  | 

The remaining molecules from weak to strong by IC50 (androgen receptor (AR); [3]), led by results:

Row | IC50 (androgen receptor (AR); [3]) [nM] | Structure (SMILES) | Hair weight (mice) [mg] | Ratio (%) of decrease in sebum After 2 weeks [1] [%] | Ratio (%) of decrease in sebum After 4 weeks [1] [%] | activity at 10 µg/mL [2] [%] | IC50 (androgen receptor (AR)) [nM]
10 | 1400 | O=C(Nc1ccc([N+](=O)[O-])cc1Cl)C12CC3CC(CC(C3)C1)C2 [Example 4, Adamantan-1-carboxylic acid-(2-chloro-4-nitrophenyl)-amide] | 75 ± 10 | 20.7 | 29.7 | 130 | 
11 | 1200 | COc1cc([N+](=O)[O-])ccc1NC(=O)C12CC3CC(CC(C3)C1)C2 [Example 25, Adamantan-1-carboxylic Acid (2-methoxy-4-nitrophenyl)amide] |  |  |  |  | 
12 | 1200 | Cc1cc(NC(=O)C23CC4CC(CC(C4)C2)C3)ccc1[N+](=O)[O-] [Example 1, Adamantan-1-carboxylic acid-(3-methyl-4-nitrophenyl)-amide] | 77 ± 11 | 21.5 | 35.2 | 124 | 
13 | 740 | COc1cc(C(=O)NC23CC4CC(CC(C4)C2)C3)ccc1[N+](=O)[O-] [Example 8] | 70 ± 14 | 19.8 | 33.7 | 125 | 
14 | 240 | COc1cc(NC(=O)C23CC4CC(CC(C4)C2)C3)ccc1[N+](=O)[O-] [Example 2, Adamantan-1-carboxylic acid-(3-methoxy-4-nitrophenyl)-amide] | 74 ± 9 | 19.4 | 28.8 | 124 | 
